Measurements published in patent US5153175A, “Method of inducing sleep with GHRH complementary peptide compositions” (University of Tennesee Research Corporation, priority 1989, dated 1992).
Ends that are not written are not given here.

Assays:
[1] = test system: rabbits; experiment: Biological assay for sleep-promoting activity in rabbits after intracerebroventricular infusion (EEG, body movement, temperature); format: in vivo; conditions: rabbit; for time spent in SWS / time spent in rapid-eye-movement sleep: after administration, vs control
Procedure: Biological assays for sleep-promoting activity were performed on rabbits provided with chronically implanted ventricular guide tubes and four epidural screw electrodes for EEG. The animals were allowed at least one week to recover from surgery prior to their use for assays. Samples for testing were taken up in sterile artificial cerebrospinal fluid and a total of […] solution was infused intraventricularly (ICV) at the rate of 25 ul/min through a No. 26 hypodermic needle inserted through a guide tube. Following the infusion and removal of the infusion probe the animals were left undisturbed for 6-8 hours while EEG and bodily movements were recorded.
Slow wave sleep (SWS) was scored in two ways: (i) by conventional subjective scoring of the duration of SWS from polygraph records and (ii) by digital print-out of integrated mean rectified cortical slow waves (1/2-4 Hz). thus obtaining a measure of the amplitude was well as duration of delta wave EEG activity. Control animals were also assayed at the same time.
Operation and experimental procedure. Adult male New Zealand White Pasteurella-free rabbits, weighing 3-4 kg, were purchased from Myrtle's Rabbitry (Thompson Station, Tenn.). Under ketamine-xylazine (3.5-5.0 mg/kg iv) anesthesia, animals were provided with chronically implanted EEG electrodes, a glass-bead thermistor, and a cerebral ventricular guide tube (Krueger, J.M et al., Am. J. Physiol. 251 (Regulatory Integrative Comp. Physiol. 20): R591-R597, 1986; and Walter J.D. et al., Am. J. Physiol., 250 (Regulatory Integrative Comp. Physiol. 19): R96-R103, 1986). Briefly, stainless steal screws were implanted over the frontal parietal, and occipital cortex; and a small (1 mm diam) 50-k.OMEGA. thermistor (Fenwall Electronics) was placed 3 mm into the parietal cortex. Wires from Amphenol plugs (no. 223-1509) were soldered to the screws for EEG recordings and to the thermistors for brain temperature (Tbr) recordings. The ventricular guide tube was implanted 4 mm lateral to the bregma; during the implantation procedure, pressure at the tip of the infusion needle was monitored and used as an aid to locate the ventricle (See, e.g., Krueger, J.M et al., Am. J. Physiol., 246 (Regulatory Integrative Comp. Physiol. 15): R994-R999, 1984). Dental acrylic (DuzAll) was then used to insulate the leads and to secure the guide tube and EEG/thermistor plugs to the skull. A topical antibiotic (Bacitracin, Lilly) was applied to the incision, and 150,000 U of Duracillin (Lilly) were administered intramuscularly. At least 1 week was allowed for recovery.
Animals were housed in rooms on a 12:12-h light-dark cycle (0600-1800 h light) maintained at 21 ±2° C. The day before an experiment animals were brought to experimental chambers (Hotpack model 352600) for an overnight acclimation period. Each experimental chamber was also kept at 21 ±2° C. on a 12:12-h light-dark cycle. Food and water were available ad libitum at all times. At the top of the recording chamber, BRS/LVE electrical contact swivel was fixed; this allowed the rabbits free movement during recording periods. From the other end of the swivel a cable led to a Grass polygraph model 7D. Before each recording period the rabbits were connected to the recording cable for a 1-h habituation period, but data were not collected during this time.
Rabbits were then briefly taken out of the experimental cages and given the 3'-5' or 5'-3' CP (the "test substance"). [When animals received intracerebroventricular (ICV) injections, appropriate amounts of test substances (0.1-10.0 ul) were diluted to 50 ul with artificial CSF [3 mM KCL, 1.15 mM CaCl2 and 0.96 mM MgCl2 in pyrogen-free saline (PFS), […] NaCl (Abbott)]; these solutions were slowly infused over 2 min. […]

[2] = amino acids added to carboxyl terminal of N-acetyl muramyl-L-alanyl-D-isoglutamine; cited from earlier work
[3] = test system: growth hormone release; conditions: relative potency of C-terminal deleted hGHRH fragments; cited from earlier work
[4] = test system: lactating holstein cows; conditions: cited from earlier work
[5] = test system: rat pituitary gland; conditions: cited from earlier work

H-DPVNIRAFDDVL-NH2 [3'-5' CP, H-Asp-Pro-Val-Asn-Ile-Arg-Ala-Phe-Asp-Asp-Val-Leu-NH2]
behavior (arousable; eat, drink and groom) ([1]; ICV): behavior was normal | capacity to enhance sleep ([1]; ICV): have the capacity to enhance sleep | character of the excess sleep (cycling through states of vigilance) ([1]; ICV): appeared normal | temperatures of the animals ([1]; ICV): remained normal | time spent in SWS ([1]; ICV): significantly more time | time spent in rapid-eye-movement sleep ([1]; ICV): significantly more time

H-VEPGSLFLVPLPLLPVHDFVQQFAGI-NH2 [5'-3' CP]
capacity to enhance sleep ([1]; ICV): have the capacity to enhance sleep | time spent in SWS ([1]; ICV): significantly more time | time spent in rapid-eye-movement sleep ([1]; ICV): significantly more time | behavior (arousable; eat, drink and groom) ([1]; in vivo): behavior was normal | character of the excess sleep (cycling through states of vigilance) ([1]; in vivo): appeared normal | temperatures of the animals ([1]; in vivo): remained normal

N-acetyl-muramyl-L-alanyl-D-isoglutamyl-L-diaminopimelyl alanine
somnogenic activity [2]: somnogenic activity is retained

hGHRH (1-19): C-terminal deleted GHRH fragment (YADAIFTNSYRKVLGQLSA; Somatoliberin; UniProt P01286 32-50, looked up, fragment)
relative GH-releasing potency [3]: No activity

hGHRH (1-24): C-terminal deleted GHRH fragment (YADAIFTNSYRKVLGQLSARKLLQ; Somatoliberin; UniProt P01286 32-55, looked up, fragment)
relative GH-releasing potency [3]: 0.02%

hGHRH (1-27): C-terminal deleted GHRH fragment (YADAIFTNSYRKVLGQLSARKLLQDIM; Somatoliberin; UniProt P01286 32-58, looked up, fragment)
relative GH-releasing potency [3]: 12%

human GHRH: Growth Hormone Releasing Hormone, hypothalamic peptide which positively regulates the synthesis and secretion of growth hormone (YADAIFTNSYRKVLGQLSARKLLQDIMSRQQGESNQERGARARL; ends and bridges not checked; UniProt P01286 32-75, looked up)
feed to milk conversion [4]: apparent increase | secretion of growth hormone [4]: increases the secretion of growth hormone consistently | GH-stimulating effect [5]: a GH-stimulating effect on the rat pituitary gland
